Test results from PubChem BioAssay (NCI).
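Interpolation was linear, between the two tested concentrations surrounding the appropriate level; five concentrations were tested over 48 hours in 96-well plates. The concentration for 50% growth inhibition is given as GI50. TGI: total growth inhibition.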

Key:
Assay in all cases: NCI-60 cell line screen, 48 h
[1] = system: T-47D breast
[2] = system: HL-60(TB) leukemia
[3] = system: CCRF-CEM leukemia
[4] = system: M14 melanoma
[5] = system: DU-145 prostate
[6] = system: OVCAR-5 ovarian
[7] = system: IGROV1 ovarian
[8] = system: SF-539 CNS
[9] = system: NCI-H522 lung
[10] = system: K-562 leukemia
[11] = system: OVCAR-4 ovarian
[12] = system: ACHN renal
[13] = system: NCI/ADR-RES ovarian
[14] = system: CAKI-1 renal
[15] = system: HCT-15 colon
[16] = system: RXF 393 renal
[17] = system: OVCAR-3 ovarian
[18] = system: 786-0 renal
[19] = system: UACC-257 melanoma
[20] = system: SF-268 CNS
[21] = system: PC-3 prostate
[22] = system: COLO 205 colon
[23] = system: NCI-H23 lung
[24] = system: UO-31 renal
[25] = system: OVCAR-8 ovarian
[26] = system: HOP-62 NSCLC
[27] = system: BT-549 breast
[28] = system: NCI-H226 lung
[29] = system: U251 CNS
[30] = system: SK-MEL-28 melanoma
[31] = system: SN12C renal
[32] = system: SK-MEL-2 melanoma
[33] = system: SNB-75 CNS
[34] = system: TK-10 renal
[35] = system: MOLT-4 leukemia
[36] = system: NCI-H460 lung
[37] = system: HCC-2998 colon
[38] = system: RPMI-8226 leukemia
[39] = system: MDA-MB-435
[40] = system: UACC-62 melanoma
[41] = system: MDA-MB-231 breast
[42] = system: HS 578T breast
[43] = system: HT29 colon
[44] = system: A498 renal
[45] = system: SK-OV-3 ovarian
[46] = system: SK-MEL-5 melanoma
[47] = system: SF-295 CNS
[48] = system: MCF7 breast
[49] = system: EKVX NSCLC
[50] = system: A549 NSCLC
[51] = system: HOP-92 NSCLC
[52] = system: MALME-3M melanoma
[53] = system: HCT-116 colon
[54] = system: SW-620 colon
[55] = system: SNB-19 CNS
[56] = system: SR leukemia
[57] = system: LOX IMVI melanoma
[58] = system: KM12 colon

`C=CC(=O)N1C[C@H](COc2nc(Nc3cnn(C)c3)nc3[nH]cc(Cl)c23)[C@@H](OC)C1` gave a GI50 [1] of 2.01 µM, a TGI [1] of 17.6 µM and a GI50 [2] of 3.31 µM. It also gave a TGI [2] of 13 µM, a GI50 [3] of 0.635 µM and a TGI [3] greater than 100 µM. It also gave a GI50 [4] of 4.49 µM, a TGI [4] of 20.3 µM and a GI50 [5] of 1.45 µM. For the same compound, the TGI [5] was 15.4 µM, the GI50 [6] was 3.18 µM and the TGI [6] was 48.4 µM. It also gave a GI50 [7] of 0.438 µM, a TGI [7] of 2.79 µM and a GI50 [8] of 1.28 µM. It also gave a TGI [8] of 4.61 µM, a GI50 [9] of 0.431 µM and a TGI [9] of 17.6 µM. The GI50 [10] was 4.75 µM, the TGI [10] was greater than 100 µM and the GI50 [11] was 2.15 µM. It also gave a TGI [11] of 14.1 µM, a GI50 [12] of 0.993 µM and a TGI [12] of 13.3 µM. For the same compound, the GI50 [13] was 18 µM, the TGI [13] was 65.3 µM and the GI50 [14] was 1 µM. For the same compound, the TGI [14] was 3.67 µM, the GI50 [15] was 4.74 µM and the TGI [15] was 24.3 µM. It also gave a GI50 [16] of 0.509 µM, a TGI [16] of 2.88 µM and a GI50 [17] of 2.28 µM. It also gave a TGI [17] of 18 µM, a GI50 [18] of 1.96 µM and a TGI [18] of 29.6 µM. It also gave a GI50 [19] of 6.64 µM, a TGI [19] of 28 µM and a GI50 [20] of 0.965 µM. It also gave a TGI [20] of 15.5 µM, a GI50 [21] of 3.98 µM and a TGI [21] of 55.3 µM. For the same compound, the GI50 [22] was 2.83 µM, the TGI [22] was 14.6 µM and the GI50 [23] was 4.1 µM. It also gave a TGI [23] of 18.9 µM, a GI50 [24] of 1.55 µM and a TGI [24] of 11 µM. For the same compound, the GI50 [25] was 4.74 µM, the TGI [25] was 24.5 µM and the GI50 [26] was 4.12 µM. The TGI [26] was 28.5 µM, the GI50 [27] was 0.992 µM and the TGI [27] was 8.34 µM. For the same compound, the GI50 [28] was 0.97 µM, the TGI [28] was 21.7 µM and the GI50 [29] was 0.991 µM. For the same compound, the TGI [29] was 17.5 µM, the GI50 [30] was 8.43 µM and the TGI [30] was 25.9 µM. For the same compound, the GI50 [31] was 2.29 µM, the TGI [31] was 15.7 µM and the GI50 [32] was 11.5 µM. It also gave a TGI [32] of 25.7 µM, a GI50 [33] of 0.357 µM and a TGI [33] of 2.42 µM. For the same compound, the GI50 [34] was 1.16 µM, the TGI [34] was 10.6 µM and the GI50 [35] was 2.02 µM. For the same compound, the TGI [35] was 37.9 µM, the GI50 [36] was 4.13 µM and the TGI [36] was 18.6 µM. The GI50 [37] was 5.47 µM, the TGI [37] was 19.4 µM and the GI50 [38] was 3.29 µM. For the same compound, the TGI [38] was 22.7 µM, the GI50 [39] was 3 µM and the TGI [39] was 16.4 µM. For the same compound, the GI50 [40] was 2.89 µM, the TGI [40] was 14.3 µM and the GI50 [41] was 2.84 µM. For the same compound, the TGI [41] was 16.1 µM, the GI50 [42] was 1.01 µM and the TGI [42] was 4.31 µM. It also gave a GI50 [43] of 5.24 µM, a TGI [43] of 48.6 µM and a GI50 [44] of 0.26 µM. For the same compound, the TGI [44] was 1.14 µM, the GI50 [45] was 0.225 µM and the TGI [45] was 1.2 µM. The GI50 [46] was 11.5 µM, the TGI [46] was 23.6 µM and the GI50 [47] was 11.6 µM. For the same compound, the TGI [47] was 24.2 µM, the GI50 [48] was 1.22 µM and the TGI [48] was 13.8 µM. The GI50 [49] was 1.23 µM, the TGI [49] was 8.55 µM and the GI50 [50] was 2.8 µM. It also gave a TGI [50] of 14.8 µM, a GI50 [51] of 1.25 µM and a TGI [51] of 4.87 µM. The GI50 [52] was 10.9 µM, the TGI [52] was 24.4 µM and the GI50 [53] was 1.24 µM. It also gave a TGI [53] of 14.3 µM, a GI50 [54] of 1.15 µM and a TGI [54] of 16.2 µM. The GI50 [55] was 3.41 µM, the TGI [55] was 16.2 µM and the GI50 [56] was 0.65 µM. It also gave a TGI [56] greater than 100 µM, a GI50 [57] of 0.894 µM and a TGI [57] of 12.2 µM. For the same compound, the GI50 [58] was 0.342 µM and the TGI [58] was 14 µM.
